# Reference: patent US9113629B2, “4-amino-6-(4-substituted-phenyl)-picolinates and 6-amino-2-(4-substituted-phenyl)-pyrimidine-4-carboxylates and their use as herbicides” (DOW AGROSCIENCES LLC, priority 2013, dated 2015)
# Read-outs that look alike come from different tables or passages of the source.
# Tests used:
# [1] = system: Key Grass and Sedge Weeds as well as Grass Crops; test: Post-emergent Test II herbicidal activity (Table 6); assay type: in vivo; conditions: post-emergence, 336 h; for pest or weed control at 70 g/ha: 70 g ai/ha; for pest or weed control at 140 g/ha: 140 g ai/ha
# Protocol: (§1) Post-emergent Test II: Seeds or nutlets of the desired test plant species were planted in Sun Gro Metro-Mix® 360 planting mixture, which typically has a pH of 6.0 to 6.8 and an organic matter content of about 30 percent, in plastic pots with a surface area of 64 square centimeters. When required to ensure good germination and healthy plants, a fungicide treatment and/or other chemical or physical treatment was applied. The plants were grown for 7-21 d in a greenhouse with an approximate 15 h photoperiod which was maintained at about 23-29° C. during the day and 22-28° C. during the night. Nutrients and water were added on a regular basis and supplemental lighting was provided with overhead metal halide 1000-Watt lamps as necessary. The plants were employed for testing when they reached the first or second true leaf stage.
# (§2) A weighed amount, determined by the highest rate to be tested, of each test compound was placed in a 25 mL glass vial and was dissolved in 4 mL of a 97:3 v/v mixture of acetone and DMSO to obtain concentrated stock solutions. […] The concentrated stock solutions obtained were diluted with 20 mL of an aqueous mixture containing acetone, water, isopropyl alcohol, DMSO. Atplus 411F crop oil concentrate, and Triton® X-155 surfactant in a 48.5:39:10:1.5:1.0:0.02 v/v ratio to obtain spray solutions containing the highest application rates. Additional application rates were obtained by serial dilution of 12 mL of the high rate solution into a solution containing 2 mL of 97:3 v/v mixture of acetone and DMSO and 10 mL of an aqueous mixture containing acetone, water, isopropyl alcohol, DMSO, Atplus 411F crop oil concentrate, and Triton X-155 surfactant in a 48.5:39:10:1.5:1.0:0.02 v/v ratio to obtain ½×, ¼×, ⅛× and 1/16× rates of the high rate. Compound requirements are based upon a 12 mL application volume at a rate of 187 liters per hectare (L/ha). Formulated compounds were applied to the plant material with an overhead Mandel track sprayer equipped with 8002E nozzles calibrated to deliver 187 L/ha over an application area of 0.503 square meters at a spray height of 18 inches (43 cm) above the average plant canopy height. Control plants were sprayed in the same manner with the solvent blank.
# (§3) The treated plants and control plants were placed in a greenhouse as described above and watered by subirrigation to prevent wash-off of the test compounds. After 14 d, the condition of the test plants as compared with that of the untreated plants was determined visually and scored on a scale of 0 to 100 percent where 0 corresponds to no injury and 100 corresponds to complete kill.
# [2] = system: Key Broadleaf Weed and Crop Species; test: Post-emergent Test II herbicidal activity (Table 5); assay type: in vivo; conditions: post-emergence, 336 h, 14 days after application; for pest or weed control at 70 g/ha: application rate 70 g ai/ha; for pest or weed control at 140 g/ha: application rate 140 g ai/ha
# Protocol: as §1, §2, §3
# [3] = CYPES: yellow nutsedge (Cyperus esculentus), read-out: Visual Growth Reduction (%) 14 Days After Application, CYPES
# [4] = DIGSA: crabgrass (Digitaria sanguinalis), read-out: Visual Growth Reduction (%) 14 Days After Application, DIGSA
# [5] = ECHCG: barnyardgrass (Echinochloa crus-galli), read-out: Visual Growth Reduction (%) 14 Days After Application, ECHCG
# [6] = ORYSA: rice (Oryza sativa), crop, read-out: Visual Growth Reduction (%) 14 Days After Application, ORYSA
# [7] = SETFA: giant foxtail (Setaria faberi), read-out: Visual Growth Reduction (%) 14 Days After Application, SETFA
# [8] = SORVU: grain sorghum (Sorghum vulgare), read-out: Visual Growth Reduction (%) 14 Days After Application, SORVU
# [9] = TRZSS (wheat, Triticum aestivum), crop, read-out: Visual Growth Reduction (%) 14 Days After Application, TRZSS
# [10] = ZEAMX: maize, corn (Zea mays), crop, read-out: Visual Growth Reduction (%) 14 Days After Application, ZEAMX
# [11] = ABUTH: velvetleaf (Abutilon theophrasti), read-out: Visual Growth Reduction (%) 14 Days After Application, ABUTH
# [12] = AMARE: redroot pigweed (Amaranthus retroflexus), read-out: Visual Growth Reduction (%) 14 Days After Application, AMARE
# [13] = BRSNN: oilseed-rape, canola (Brassica napus), read-out: Visual Growth Reduction (%) 14 Days After Application, BRSNN
# [14] = EPHHL: wild poinsettia (Euphorbia heterophylla), read-out: Visual Growth Reduction (%) 14 Days After Application, EPHHL
# [15] = HELAN: sunflower (Helianthus annuus), read-out: Visual Growth Reduction (%) 14 Days After Application, HELAN
# [16] = VIOTR: wild pansy (Viola tricolor), read-out: Visual Growth Reduction (%) 14 Days After Application, VIOTR
compound,measurement,setting,value
COc1c(N)nc(-c2ccc(I)cc2)nc1C(=O)O [Compound 88],pest or weed control at 70 g/ha,[1]; [3],85 to 94%
same,pest or weed control at 140 g/ha,[1]; [3],95 to 100%
same,pest or weed control at 70 g/ha,[1]; [4],0 to 29%
same,pest or weed control at 140 g/ha,[1]; [4],0 to 29%
same,pest or weed control at 70 g/ha,[1]; [5],75 to 84%
same,pest or weed control at 140 g/ha,[1]; [5],75 to 84%
same,pest or weed control at 70 g/ha,[1]; [6],0 to 29%
same,pest or weed control at 140 g/ha,[1]; [6],0 to 29%
same,pest or weed control at 70 g/ha,[1]; [7],60 to 74%
same,pest or weed control at 140 g/ha,[1]; [7],85 to 94%
same,pest or weed control at 70 g/ha,[1]; [8],75 to 84%
same,pest or weed control at 140 g/ha,[1]; [8],85 to 94%
same,pest or weed control at 70 g/ha,[1]; [9],60 to 74%
same,pest or weed control at 140 g/ha,[1]; [9],60 to 74%
same,pest or weed control at 70 g/ha,[1]; [10],45 to 59%
same,pest or weed control at 140 g/ha,[1]; [10],45 to 59%
same,pest or weed control at 70 g/ha,[2]; [11],75 to 84%
same,pest or weed control at 140 g/ha,[2]; [11],95 to 100%
same,pest or weed control at 70 g/ha,[2]; [12],85 to 94%
same,pest or weed control at 140 g/ha,[2]; [12],85 to 94%
same,pest or weed control at 70 g/ha,[2]; [13],95 to 100%
same,pest or weed control at 140 g/ha,[2]; [13],95 to 100%
same,pest or weed control at 140 g/ha,"[2]; CHEAL: lambsquarters (Chenopodium album), read-out: Visual Growth Reduction (%) 14 Days After Application, CHEAL",95 to 100%
same,pest or weed control at 70 g/ha,[2]; [14],95 to 100%
same,pest or weed control at 140 g/ha,[2]; [14],95 to 100%
same,pest or weed control at 70 g/ha,[2]; [15],85 to 94%
same,pest or weed control at 140 g/ha,[2]; [15],85 to 94%
same,pest or weed control at 70 g/ha,[2]; [16],45 to 59%
same,pest or weed control at 140 g/ha,[2]; [16],60 to 74%
